Source: ChEMBL document CHEMBL1201862, “PubChem BioAssay data set” (2004)
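Cells were grown in 96-well plates and exposed to each compound for 48 hours at five concentrations; endpoints were interpolated linearly between bracketing concentrations, or set to the highest concentration if not reached. GI50 = concentration required for 50% inhibition of growth.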 Calls of active or inactive are those of the source. Cut-off read from the data, not from the text of the source: active = GI50 up to about 1.1 µM and inactive = higher.

Tests used:
Assay in all cases: inhibition of tumour cell growth, NCI panel, 48 h
[1] = test system: 786-0
[2] = test system: A498
[3] = test system: A549
[4] = test system: ACHN
[5] = test system: CAKI-1
[6] = test system: CCRF-CEM
[7] = test system: COLO 205
[8] = test system: DLD-1
[9] = test system: DMS-114
[10] = test system: DMS-273
[11] = test system: EKVX
[12] = test system: HCC 2998
[13] = test system: HCT-116
[14] = test system: HCT-15
[15] = test system: HL-60
[16] = test system: HOP-18
[17] = test system: HOP-62
[18] = test system: HOP-92
[19] = test system: HT-29
[20] = test system: IGROV-1
[21] = test system: K562
[22] = test system: KM-20L2
[23] = test system: KM12
[24] = test system: LOX IMVI
[25] = test system: LXFL 529
[26] = test system: M14
[27] = test system: M19-MEL
[28] = test system: MOLT-4
[29] = test system: Malme-3M
[30] = test system: NCI-H226
[31] = test system: NCI-H23
[32] = test system: NCI-H460
[33] = test system: NCI-H522
[34] = test system: OVCAR-3
[35] = test system: OVCAR-4
[36] = test system: OVCAR-5
[37] = test system: OVCAR-8
[38] = test system: RPMI-8226
[39] = test system: RXF 393
[40] = test system: SF-268
[41] = test system: SF-295
[42] = test system: SF-539
[43] = test system: SK-MEL-28
[44] = test system: SK-MEL-2
[45] = test system: SK-MEL-5
[46] = test system: SK-OV-3
[47] = test system: SN12C
[48] = test system: SNB-19
[49] = test system: SNB-75
[50] = test system: SNB-78
[51] = test system: SW-620
[52] = test system: TK-10
[53] = test system: U-251
[54] = test system: UACC-257
[55] = test system: UACC-62
[56] = test system: UO-31
[57] = test system: XF498

COc1cc(CC2c3cc(OC)c(OC)cc3CCN2C)c(Oc2cc3c(cc2OC)-c2c(OC)c(OC)c(OC)c4c2C(C3)N(C)CC4)cc1OC (stereo not given)
GI50 [1]: 8.39 µM (inactive) | GI50 [2]: 15.3 µM (inactive) | GI50 [3]: 15.9 µM (inactive) | GI50 [4]: 15.8 µM (inactive) | GI50 [5]: 14.8 µM (inactive) | GI50 [6]: 16.4 µM (inactive) | GI50 [7]: 7.23 µM (inactive) | GI50 [8]: 15.5 µM (inactive) | GI50 [9]: 12.1 µM (inactive) | GI50 [10]: 12.5 µM (inactive) | GI50 [11]: 16.6 µM (inactive) | GI50 [12]: 5.32 µM (inactive) | GI50 [13]: 11.7 µM (inactive) | GI50 [14]: 10.1 µM | GI50 [15]: 9.29 µM (inactive) | GI50 [16]: 16.4 µM (inactive) | GI50 [17]: 17.3 µM (inactive) | GI50 [18]: 6.53 µM (inactive) | GI50 [19]: 8.77 µM (inactive) | GI50 [20]: 14.3 µM (inactive) | GI50 [21]: 2.63 µM (inactive) | GI50 [22]: 5.93 µM (inactive) | GI50 [23]: 12.7 µM (inactive) | GI50 [24]: 6.73 µM (inactive) | GI50 [25]: 13.7 µM (inactive) | GI50 [26]: 2.4 µM (inactive) | GI50 [27]: 15 µM (inactive) | GI50 [28]: 4.52 µM (inactive) | GI50 [29]: 2.49 µM (inactive) | GI50 [30]: 17.2 µM (inactive) | GI50 [31]: 17.1 µM (inactive) | GI50 [32]: 15.6 µM (inactive) | GI50 [33]: 11.7 µM (inactive) | GI50 [34]: 12.3 µM (inactive) | GI50 [35]: 16 µM (inactive) | GI50 [36]: 16.2 µM (inactive) | GI50 [37]: 14.9 µM (inactive) | GI50 [38]: 14 µM (inactive) | GI50 [39]: 2.9 µM (inactive) | GI50 [40]: 15 µM (inactive) | GI50 [41]: 14.6 µM (inactive) | GI50 [42]: 13 µM (inactive) | GI50 [43]: 9.64 µM (inactive) | GI50 [44]: 14.6 µM (inactive) | GI50 [45]: 4.33 µM (inactive) | GI50 [46]: 19.7 µM (inactive) | GI50 [47]: 14 µM (inactive) | GI50 [48]: 19.4 µM (inactive) | GI50 [49]: 11.4 µM (inactive) | GI50 [50]: 17.4 µM (inactive) | GI50 [51]: 15.6 µM (inactive) | GI50 [52]: 15.4 µM (inactive) | GI50 [53]: 12.6 µM (inactive) | GI50 [54]: 6.31 µM (inactive) | GI50 [55]: 15.2 µM (inactive) | GI50 [56]: 7.93 µM (inactive) | GI50 [57]: 13 µM (inactive)

C[C@@H](N[C@H]1CCC[C@@H]1O)c1ccccc1.C[C@@H](N[C@H]1CCC[C@H]1O)c1ccccc1
GI50 [1]: 70.1 µM (inactive) | GI50 [2]: > 100 µM (inactive) | GI50 [3]: > 100 µM (inactive) | GI50 [4]: > 100 µM (inactive) | GI50 [6]: 89.9 µM (inactive) | GI50 [7]: 75.7 µM (inactive) | GI50 [9]: > 100 µM (inactive) | GI50 [10]: > 100 µM (inactive) | GI50 [11]: > 100 µM (inactive) | GI50 [12]: 65.8 µM (inactive) | GI50 [13]: 34.9 µM (inactive) | GI50 [14]: > 100 µM | GI50 [15]: 43.6 µM (inactive) | GI50 [16]: 48.8 µM (inactive) | GI50 [17]: 51.9 µM (inactive) | GI50 [18]: 30.7 µM (inactive) | GI50 [19]: 38.1 µM (inactive) | GI50 [20]: > 100 µM (inactive) | GI50 [21]: 44.9 µM (inactive) | GI50 [22]: 38.2 µM (inactive) | GI50 [23]: 41.4 µM (inactive) | GI50 [24]: 34.4 µM (inactive) | GI50 [26]: 49 µM (inactive) | GI50 [27]: > 100 µM (inactive) | GI50 [28]: 51.5 µM (inactive) | GI50 [29]: > 100 µM (inactive) | GI50 [30]: 19.9 µM (inactive) | GI50 [31]: > 100 µM (inactive) | GI50 [32]: 37.8 µM (inactive) | GI50 [33]: > 100 µM (inactive) | GI50 [34]: > 100 µM (inactive) | GI50 [35]: > 100 µM (inactive) | GI50 [37]: > 100 µM (inactive) | GI50 [38]: 53.7 µM (inactive) | GI50 [39]: > 100 µM (inactive) | GI50 [40]: > 100 µM (inactive) | GI50 [41]: 40.4 µM (inactive) | GI50 [42]: > 100 µM (inactive) | GI50 [43]: 58.3 µM (inactive) | GI50 [44]: > 100 µM (inactive) | GI50 [45]: 57.7 µM (inactive) | GI50 [46]: > 100 µM (inactive) | GI50 [47]: > 100 µM (inactive) | GI50 [48]: 71.8 µM (inactive) | GI50 [49]: > 100 µM (inactive) | GI50 [50]: > 100 µM (inactive) | GI50 [51]: 61.4 µM (inactive) | GI50 [52]: 90.4 µM (inactive) | GI50 [53]: 48.1 µM (inactive) | GI50 [54]: > 100 µM (inactive) | GI50 [55]: 75 µM (inactive) | GI50 [56]: 50.5 µM (inactive) | GI50 [57]: > 100 µM (inactive)
